# Measurements: patent publication US12599645B2, “Antibodies which bind to lysophosphatidic acid receptor 1 (LPAR1)” (DJS ANTIBODIES LTD, priority 2021, dated 2026)
# Like-named read-outs stand apart in the source and are kept apart here.
# What was measured:
# [1] = test system: diabetic nephropathy; conditions: 8 weeks, cited from earlier work
# [2] = test system: hepatic bile acid efflux transporters (e.g., BSEP, MRP3 and MRP4); conditions: cited from earlier work
# [3] = molecular target: T1, LPAR1 (Homo sapiens, UniProt Q92633); assay: BRET assay (G protein activation and βArrestin 2 biosensors); type: cell-based; design: expressed in transfected cells; host or cells: HEK293 (transient, PEI)
# T1 sequence (Q92633 whole entry): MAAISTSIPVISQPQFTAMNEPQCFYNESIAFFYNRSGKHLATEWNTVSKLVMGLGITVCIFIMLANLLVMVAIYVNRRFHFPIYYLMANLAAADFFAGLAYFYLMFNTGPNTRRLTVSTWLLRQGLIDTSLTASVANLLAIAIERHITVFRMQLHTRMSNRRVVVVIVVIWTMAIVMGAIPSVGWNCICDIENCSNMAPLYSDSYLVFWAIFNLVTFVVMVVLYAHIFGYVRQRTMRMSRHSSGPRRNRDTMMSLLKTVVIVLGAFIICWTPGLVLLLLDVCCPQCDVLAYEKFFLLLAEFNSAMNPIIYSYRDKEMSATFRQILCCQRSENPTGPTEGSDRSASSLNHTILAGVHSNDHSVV
# Protocol: Using polyethylenimine (PEI) transfection agent at a 3:1 ratio, HEK293 cells were co-transfected in suspension with hLPAR1 and one of the following biosensors: G protein activation sensors (Gαi2, Gα13, and Gαq) and the βArrestin 2-PM recruitment biosensor (+GRK2). Cells were directly seeded in 96-well plates immediately following transfection at a density of 35,000 cells/well. 48 hours post-transfection, BRET experiments were performed in both agonist and allosteric/antagonist mode. Using a plate washer, culture medium was aspirated and replaced with 30 μl of Hank's Balanced Salt Solution buffer (HBSS). Plates were equilibrated at room temperature for 60 minutes. For agonist testing, serial dilutions of the antibodies were performed in PBS and then added to each well. Antibodies were assayed at 12 concentrations in technical duplicates. Small molecules were added to each relevant well. Small molecules were assayed at 22 concentrations with each biosensor. Cells were then incubated with the antibodies or small molecules at room temperature for 60 or 10 minutes, respectively. 10 μl of 10 μM e-Coelenterazine Prolume Purple (Nanolight) was then added to each well. Cells were incubated at room temperature for an additional 10 minutes. BRET readings were then collected with a 0.4 sec integration time on a plate reader (filters: 400 nm/70 nm, 515 nm/20 nm). For allosteric testing (after agonist testing), an EC75 of the endogenous ligand (oleoyl-LPA) was added to each well already containing antibody or small molecule. Cells were incubated at room temperature for an additional 10 minutes. BRET readings were then collected with a 0.4 sec integration time on a plate reader (filters: 400 nm/70 nm, 515 nm/20 nm). BRET signals were determined by calculating the ratio of light emitted by GFP-acceptor (515 nm) over light emitted by luciferase-donor (400 nm). All BRET ratios were standardized with pre-established BRET values for positive and negative controls. The standardized BRET ratio is referred to as universal BRET (uBRET). Resulting dose-response curves were fitted using the three- or four-parameter logistic non-linear regression model in GraphPad Prism 9.
# The inhibition characteristics of Antibody 12 were investigated by Bioluminescence Resonance Energy Transfer (BRET, method 1.15) and compared to a small molecule LPAR1 inhibitor of the prior art (BMS-986020), see FIG. 13. The upper lines are values recorded with LPA present and the lower lines are values recorded with LPA not present. […] This can only happen if the ligand (LPA) is also interacting with the receptor at the same time to enable some signalling. […]
# [4] = test system: idiopathic pulmonary fibrosis; conditions: cited from earlier work
# [5] = test system: renal fibrosis after UUO surgery; assay: Unilateral ureteral obstruction (UUO) efficacy model of renal fibrosis; type: in vivo, Hartley guinea pigs
# Protocol: Unilateral ureteral obstruction (UUO) is a well-characterized disease model for renal fibrosis. The UUO model encompasses key pathophysiological features of chronic kidney disease; tubular necrosis and inflammatory cell infiltration within a relatively short period.
# Two unilateral ureteral obstruction (UUO) model efficacy studies were carried out in six-week old female Hartley guinea pigs. On Day 0, UUO surgery was performed. BMS-986020 was administered orally at a dose level of 30 mg/kg in a volume of 5 mL/kg twice daily at from Day −1 to 9. Isotype control and anti-LPAR1 antibody was intraperitoneally administered at a dose level of 6 mg/kg (low) or 20 mg/kg (high) in a volume of 10 mL/kg at Day −1, Day 0, Day 3 and Day 6. The viability, clinical signs, behaviour and individual body weight was monitored daily.
# The animals were sacrificed at Day 10. The ligated left kidney and right kidney weight were measured at sacrifice.
# Hydroxyproline is an amino acid, making up around 14% of collagen and acts as an important indicator of the severity of fibrosis. To quantify kidney hydroxyproline content, frozen posterior right section of left kidney samples were processed by an alkaline-acid hydrolysis method. AC buffer (2.2M acetic acid/0.48M citric acid) was added to the samples, followed by centrifugation to collect the supernatant. A standard curve of hydroxyproline was constructed with serial dilutions of trans-4-hydroxy-L-proline (Sigma-Aldrich, USA) starting at 16 μg/mL. The prepared samples and standards were mixed with chloramine T solution (Nacalai Tesque Inc., Japan) and incubated for 25 minutes at room temperature. The samples were then mixed with Ehrlich's solution and heated at 65° C. for 20 minutes to develop the colour. After samples were cooled on ice and centrifuged to remove precipitates, the optical density of each supernatant was measured at 560 nm. The concentrations of hydroxyproline were calculated from the hydroxyproline standard curve. Protein concentrations of kidney samples were determined using a BCA protein assay kit (Thermo Fisher Scientific, USA) and used to normalize the calculated hydroxyproline values. Kidney hydroxyproline contents were expressed as μg per mg protein.
# The left kidney was fixed in Bouin's solution and embedded in paraffin. For PAS staining, sections were cut from paraffin blocks and stained with Schiff's reagent (FUJIFILM Wako pure chemical corporation, Japan) according to the manufacturer's instructions. To visualize collagen deposition, kidney sections were stained using picro-Sirius red solution (FUJIFILM Wako pure chemical corporation). For quantification of interstitial and medulla fibrosis area, bright field images in the corticomedullary region were captured using a digital camera (DFC295) at 200-fold magnification, and the positive areas in 5 fields/section were measured using ImageJ software (National Institute of Health, USA).
# [6] = molecular target: T1, LPAR1; assay: Transient-transfection CIFAT, live cells; type: binding; design: HA; expressed in transfected cells; host or cells: CHO-K1 (transient, PEI); conditions: 5 μg/mL or 20 μg/mL
# Protocol: CHO-K1 cells are seeded in multi well plates at 20,000 cells per 200 μL full growth medium and incubated for 24 hours at 37° C. In a sterile tube, 0.0309 uL/well PEI is diluted into 10 uL/well transfection medium (DMEM supplemented with 2 mM L-glutamine and Penicillin-Streptomycin). The diluted PEI is added to 100 ng/well DNA, before mixing immediately and incubating the mixture for 10 minutes at room temperature. 200 μL/well full growth medium is added to the PEI-DNA mixture, then medium in wells is taken off and 200 ul full growth medium/PEI/DNA mixture is added in the wells of the adherent cell plate. The plate is incubated for 24 hours at 37° C. The medium is discarded and replaced with 200 μL full growth medium. The plate is incubated for 24 hours at 37° C. Medium is removed from the wells and the cells incubated with primary antibody at varying concentrations for 75 minutes at 37° C. After washing and cell fixation with 4% PFA, the binding of the antibodies is detected using a goat anti-human detection antibody, incubated for 1 hour at room temperature. Fluorescence at 488 nm is measured.
# CHO-K1 cells were seeded in clear 96-well plates at 20,000 cells per 200 μL full growth medium and incubated for 24 hours at 37° C. The following day, in a sterile tube, 0.0309 uL/well PEI (Generon, MW 160,000) was diluted into 10 uL/well transfection medium (DMEM supplemented with 2 mM L-glutamine and Penicillin-Streptomycin). The diluted PEI was added to 100 ng/well DNA encoding the target protein (human LPAR1 (SEQ ID NO: 62) unless otherwise stated), before vortexing immediately and incubating the mixture for 10 minutes at room temperature. 200 μL/well full growth medium was added to the PEI-DNA mixture, then medium in wells was taken off and 200 ul full growth medium/PEI/DNA mixture was added in the wells of the adherent cell plate. The plate was incubated for 24 hours at 37° C. The next day, the medium was discarded and replaced with 200 μL full growth medium. The plate was incubated for 24 hours at 37° C. The following day, medium was removed from the wells and the cells incubated with primary antibody at varying concentrations for 75 minutes at 37° C. After washing and cell fixation with 4% PFA, the binding of the antibodies was detected using a goat anti-human Alexa Fluor 488 detection antibody (Invitrogen), incubated for 1 hour at room temperature. Fluorescence at 488 nm was measured using a BMG LABTECH ClarioStar plate reader and microscopy images were taken at 10× magnification.
# (§1) Anti-LPAR1 antibodies of the invention were tested alongside commercially available anti-LPAR1 antibodies in the transient-transfection CIFAT assay for live cells (method 1.11) and in the transient-transfection CIFAT assay for fixed cells (method 1.11).
# [7] = test system: Irrelevant GPCR; assay: Transient-transfection CIFAT, irrelevant GPCR control (fixed and live cells); type: binding; conditions: cells expressing irrelevant GPCR
# Protocol: as §1
# The results are shown in FIGS. 11 and 12, wherein the scale bar represents 100 μm.
# [8] = design: species or system Sprague Dawley rats; conditions: rat, in vivo, iv, 3 mg/kg
# Protocol: The rat pharmacokinetics study was carried out in male Sprague Dawley rats (275-325 g). Rats received an IV slow bolus (3 mg/kg) of test antibody. Blood samples were taken at the following time-points: pre-dose, 2 min, 1 hour, 3 hours, 6 hours, 24 hours, 48 hours, 96 hours, 7 days, 14 days and 21 days after dosing. For each animal and for each blood sampling, 200 μL venous blood was obtained from the sublingual vein under isoflurane anaesthesia in K2EDTA vials. The blood samples were gently mixed, placed immediately on crushed ice and centrifuged within 30 min of sampling at approximately 1500×g for approximately 10 min at approximately 4° C. For each blood sample, the resulting plasma was separated into 2 aliquots of 30 μL and transferred, using disposable plastic material, into polypropylene tubes with conical bottom and stored at −80° C. until analysis by capture ELISA. Plates were coated overnight with 1 μg/mL capture IgG before washing and blocking with 3% (w/v) milk the next morning for 2 hours. […] Absorbance was measured on a plate reader at 450 nm. Antibody concentrations were calculated using interpolation off a standard curve constructed for each individual test IgG in Prism 5 (GraphPad Software, CA, USA). Interpolated data was analysed using Phoenix WinNonlin® version 8.1 (Certara USA, Inc., Princeton, NJ) to extract relevant PK parameters. […]
# [9] = molecular target: T1, LPAR1; assay: LPAR1 binding affinity during discovery and affinity maturation, method not stated; design: expressed in transfected cells; conditions: stated in words
# [10] = molecular target: T1, LPAR1; assay: Transient-transfection CIFAT, fixed/permeabilised cells; type: binding; design: HA; expressed in transfected cells; host or cells: CHO-K1 (transient, PEI); conditions: 5 μg/mL
# [11] = Study 1, BMS-986020 30 mg/kg oral twice daily, antibody 20 mg/kg i.p., Day 10
molecule,measurement,setting,value
Cc1noc(-c2ccc(CSCCC(=O)O)cc2)c1NC(=O)OC(C)c1ccccc1Cl (stereo not drawn) [Ki16425],"24 h albuminuria vs untreated controls, reduction","[1]; db/db (moderate model), Li et al. (2017)",~30%
Cc1noc(-c2ccc(-c3ccc(CC(=O)O)cc3)cc2)c1NC(=O)O[C@H](C)c1ccccc1 [AM095],"24 h albuminuria vs untreated controls, reduction","[1]; STZ-induced (early disease model), Lee J H et al. (2019)",~30% reduction
Cc1noc(-c2ccc(-c3ccc(C4(C(=O)O)CC4)cc3)cc2)c1NC(=O)O[C@H](C)c1ccccc1 [BMS-986020],binding to hepatic bile acid efflux transporters,[2],off-target binding
same,mode of inhibition,[3]; G13 biosensor,competitive inhibitor
same,inhibition,"[3]; interaction of G-protein G13 with the GPCR, in the presence of LPA",100%
same,hepatobiliary toxicity,"[4]; compound-specific, not mediated via antagonism of LPAR1",off-target hepatobiliary toxicity
same,efficacy in patients with idiopathic pulmonary fibrosis,"[4]; human, in vivo",showed efficacy
same,cortical fibrosis (histological picrosirius staining),[5]; [11],reduced cortical fibrosis
same,kidney hydroxyproline,[5]; [11],No observable difference
same,histological picrosirius staining,[5]; Study 2,No observable difference
same,kidney hydroxyproline,"[5]; Study 2, BMS-986020 30 mg/kg oral vs vehicle, antibody 20 mg/kg (high) i.p. vs isotype antibody",trend towards reduced hydroxyproline
"Antibody 12: LCDR2 mutation T56D; VH SEQ ID NO: 36, VL SEQ ID NO: 38 (antibody, V domains shown) VH: QVQLVQSGSELKKPGASVKVSCKASGYTFTSSGISWVRQAPGQGLEWMGEILPRSGYTNYNQGFTGRFVFSADKSVSTAYLQISSLKAEDTAVYYCARDFKGGRYAMDYWGQGTTVTVSS VL: SIQMTQSPSSLSASVGDRVTITCQASQSVRYNVAWYQQKPGKAPKLLIYYASNRYDGVPSRFSGSGSGTDFTFTISSLQPEDIATYFCQHHYSSPLTFGGGTKLEIK",LPAR1 live cell staining,[6],LPAR1-Significant fixed and live cell staining
same,Irrelevant GPCR cell staining,[7],Irrelevant GPCR-No significant cell staining
same,mean Cmax,[8],217.5 µg/mL
same,binding affinity for LPAR1,[9],minimal effect on affinity
same,mode of inhibition,[3]; G13 biosensor,acting allosterically
same,inhibition with LPA present compared to the system where LPA is absent,"[3]; G13 biosensor, even at high concentrations",does not deliver equivalent inhibition
same,LPAR1 fixed cell staining,[10],LPAR1-Significant fixed and live cell staining
